We go through 1 molecule from patent publication US9920074B2 (ACEA BIOSCIENCES INC., priority 2013, dated 2018).

In assay [1] the target is T1, Jak3 phosphorylation in NK-92 cells (Homo sapiens, UniProt P52333).
T1 construct: endogenous in cells; host or cells: NK-92 cells (ATCC)
T1 sequence (P52333 1-1124): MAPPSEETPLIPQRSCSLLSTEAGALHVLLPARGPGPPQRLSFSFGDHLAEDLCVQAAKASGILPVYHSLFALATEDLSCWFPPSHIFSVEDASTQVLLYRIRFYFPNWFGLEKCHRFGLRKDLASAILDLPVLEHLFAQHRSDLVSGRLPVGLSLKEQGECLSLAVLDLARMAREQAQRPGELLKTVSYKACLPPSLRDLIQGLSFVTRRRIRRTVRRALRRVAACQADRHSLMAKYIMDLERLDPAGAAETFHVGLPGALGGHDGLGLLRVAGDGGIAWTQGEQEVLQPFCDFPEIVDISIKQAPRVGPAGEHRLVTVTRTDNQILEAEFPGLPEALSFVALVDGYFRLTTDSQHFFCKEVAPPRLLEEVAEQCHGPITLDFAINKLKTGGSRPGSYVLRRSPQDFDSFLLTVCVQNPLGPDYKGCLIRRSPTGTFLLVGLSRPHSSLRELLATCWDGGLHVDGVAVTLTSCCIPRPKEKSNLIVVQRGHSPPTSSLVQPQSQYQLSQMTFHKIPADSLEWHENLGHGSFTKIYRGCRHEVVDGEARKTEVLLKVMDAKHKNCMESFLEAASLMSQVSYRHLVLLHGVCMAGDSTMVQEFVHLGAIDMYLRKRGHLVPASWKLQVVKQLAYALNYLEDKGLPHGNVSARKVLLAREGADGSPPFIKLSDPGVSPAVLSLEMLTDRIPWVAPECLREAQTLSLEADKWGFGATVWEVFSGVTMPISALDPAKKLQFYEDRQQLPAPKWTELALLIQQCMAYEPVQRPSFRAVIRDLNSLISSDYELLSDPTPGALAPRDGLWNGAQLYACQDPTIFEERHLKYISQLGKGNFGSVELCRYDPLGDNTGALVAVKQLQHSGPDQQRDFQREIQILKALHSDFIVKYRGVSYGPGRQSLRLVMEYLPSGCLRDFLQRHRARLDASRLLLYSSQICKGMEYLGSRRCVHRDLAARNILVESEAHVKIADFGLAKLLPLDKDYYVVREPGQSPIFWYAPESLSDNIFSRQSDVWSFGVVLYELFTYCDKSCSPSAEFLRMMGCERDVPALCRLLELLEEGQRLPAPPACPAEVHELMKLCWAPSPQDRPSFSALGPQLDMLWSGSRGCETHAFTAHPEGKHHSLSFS
Briefly: Western blotting assay for Jak3. Type of assay: cell-based. The note with it: 1 hour, IL-2 stimulation, read-out: Jak3 inhibition. As for the experimental part:
All cell lines were obtained from the American Type Culture Collection and were maintained at 37° C. with 5% CO2. Ramos cell line was maintained in media supplemented with 10% fetal bovine serum, penicillin (100 units/mL) and streptomycin (100 μg/mL). NK-92 cell line was maintained in media supplemented with 10% fetal bovine serum and 10% horse serum, penicillin (100 units/mL) and streptomycin (100 μg/mL), IL-2 10 ng/mL. Goat F(ab′)2 Anti-Human IgM-UNLB was obtained from SouthernBiotech. IL-2 was obtained from Peprotech.
NK-92 cells were treated with compounds at the dosed indicated for 1 hour in incubator, followed by the IL-2 stimulation for 15 minutes. Cells were then collected and lysed to prepare the cellular extraction. Western blots were performed on cell lysate using Phospho-Jak3, Jak3, Phospho-Stat5, Stat5 antibodies (Cell Signaling Technology). The intensity of blotting band was acquired using Image Lab (Bio-Rad) software, and the IC50 of target was generated with GraphPad Prism.

The test system of assay [2] is Stat5 phosphorylation in NK-92 cells. Put plainly: Western blotting assay for Stat5. Type of assay: cell-based. The note with it: NK92, 1 hour, IL-2 stimulation, read-out: Stat5 inhibition. The essentials: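 NK-92 cells, maintained with IL-2, were pre-treated with compound for 1 h, then stimulated with IL-2 for 15 min. Lysates were western blotted for phospho- and total Jak3 and Stat5. IC50 came from densitometry of phospho-band intensity.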

Bounds are passed on as bounds.

Take `C=CC(=O)Nc1cccc(Oc2nc(Nc3ccc(N4CCN(C)CC4)cc3)ncc2OC)c1` [Compound I-1, N-(3-(5-methoxy-2-(4-(4-methylpiperazin-1-yl)phenylamino)pyrimidin-4-yloxy)phenyl)acrylamide]: the values for the IC50 in assay [1] and in assay [2] were no more than 200 nM and no less than 400 nM, respectively.
